PubChem BioAssay (NCI)
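48-hour exposure; five concentrations; linearly interpolated endpoints. At the GI50, growth is halved. TGI: total growth inhibition.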

Assays:
Test in all cases: inhibition of tumour cell growth, NCI panel, 48 h; in the data active means GI50 below about 0.43 µM; inactive means the rest
[1] = test system: SK-MEL-5 melanoma
[2] = test system: SNB-19 CNS
[3] = test system: LOX IMVI melanoma
[4] = test system: RXF 393 renal
[5] = test system: 786-0 renal
[6] = test system: ACHN renal
[7] = test system: TK-10 renal
[8] = test system: MDA-MB-435
[9] = test system: NCI/ADR-RES ovarian
[10] = test system: M14 melanoma
[11] = test system: HL-60(TB) leukemia
[12] = test system: MCF7 breast
[13] = test system: SF-539 CNS
[14] = test system: HCC-2998 colon
[15] = test system: OVCAR-3 ovarian
[16] = test system: IGROV1 ovarian
[17] = test system: U251 CNS
[18] = test system: OVCAR-5 ovarian
[19] = test system: MDA-MB-231 breast
[20] = test system: DU-145 prostate
[21] = test system: HOP-92 NSCLC
[22] = test system: HCT-116 colon
[23] = test system: T-47D breast
[24] = test system: HT29 colon
[25] = test system: RPMI-8226 leukemia
[26] = test system: CCRF-CEM leukemia
[27] = test system: K-562 leukemia
[28] = test system: OVCAR-8 ovarian
[29] = test system: SW-620 colon
[30] = test system: HS 578T breast
[31] = test system: SK-MEL-2 melanoma
[32] = test system: NCI-H226 lung
[33] = test system: HOP-62 NSCLC
[34] = test system: A549 NSCLC
[35] = test system: PC-3 prostate
[36] = test system: A498 renal
[37] = test system: MOLT-4 leukemia
[38] = test system: BT-549 breast
[39] = test system: UO-31 renal
[40] = test system: OVCAR-4 ovarian
[41] = test system: HCT-15 colon
[42] = test system: SF-268 CNS
[43] = test system: CAKI-1 renal
[44] = test system: UACC-62 melanoma
[45] = test system: SR leukemia
[46] = test system: NCI-H522 lung
[47] = test system: EKVX NSCLC
[48] = test system: SN12C renal
[49] = test system: SF-295 CNS
[50] = test system: COLO 205 colon
[51] = test system: NCI-H23 lung
[52] = test system: MALME-3M melanoma
[53] = test system: NCI-H460 lung
[54] = test system: UACC-257 melanoma
[55] = test system: KM12 colon
[56] = test system: SK-OV-3 ovarian
[57] = test system: SK-MEL-28 melanoma

Nc1nc(N)c2cc(CNc3ccc(C(=O)NC(CC(=O)O)C(=O)O)cc3)ccc2n1 (configuration not stated)
> 82000 nM: TGI [14]
> 87700 nM: TGI [10]
inactive: GI50 [2] 2160 nM | GI50 [4] > 100000 nM | GI50 [15] 3830 nM | GI50 [19] > 83700 nM | GI50 [21] > 41000 nM | GI50 [23] > 100000 nM | GI50 [25] 694 nM | GI50 [30] > 55400 nM | GI50 [37] 825 nM | GI50 [38] 429 nM | GI50 [40] > 100000 nM | GI50 [50] 3400 nM | GI50 [54] > 100000 nM | GI50 [56] 1300 nM
> 100000 nM: TGI [1] | TGI [2] | TGI [3] | TGI [4] | TGI [5] | TGI [6] | TGI [7] | TGI [8] | TGI [9] | TGI [11] | TGI [12] | TGI [13] | TGI [15] | TGI [16] | TGI [17] | TGI [18] | TGI [19] | TGI [20] | TGI [21] | TGI [22] | TGI [23] | TGI [24] | TGI [25] | TGI [26] | TGI [27] | TGI [28] | TGI [29] | TGI [30] | TGI [31] | TGI [32] | TGI [33] | TGI [34] | TGI [35] | TGI [36] | TGI [37] | TGI [38] | TGI [39] | TGI [40] | TGI [41] | TGI [42] | TGI [43] | TGI [44] | TGI [45] | TGI [46] | TGI [47] | TGI [48] | TGI [50] | TGI [51] | TGI [52] | TGI [53] | TGI [54] | TGI [55] | TGI [56] | TGI [57]
active: GI50 [1] 340 nM | GI50 [3] 43.4 nM | GI50 [5] 103 nM | GI50 [6] 180 nM | GI50 [8] 58.9 nM | GI50 [9] 126 nM | GI50 [10] 119 nM | GI50 [11] 32.5 nM | GI50 [12] 62.1 nM | GI50 [13] 162 nM | GI50 [14] 281 nM | GI50 [16] 187 nM | GI50 [17] 200 nM | GI50 [20] 170 nM | GI50 [22] 26 nM | GI50 [24] 59.4 nM | GI50 [26] 83.9 nM | GI50 [27] 35.9 nM | GI50 [28] 104 nM | GI50 [29] 43.2 nM | GI50 [33] 196 nM | GI50 [34] 57.8 nM | GI50 [39] 358 nM | GI50 [41] 49 nM | GI50 [42] 174 nM | GI50 [43] 108 nM | GI50 [44] 218 nM | GI50 [48] 211 nM | GI50 [49] 61.1 nM | GI50 [51] 311 nM | GI50 [53] 49.2 nM | GI50 [55] 81.7 nM
